Experimental data: patent US12594336B2, “Trace element solution” (WARBURTON TECHNOLOGY LIMITED, priority 2012, dated 2026)

Columns and labels:
[1] = Physical stability study (visual inspection) of stabilizer solutions with vitamin B12 at ambient temperature; assay type: physicochemical
Protocol: Based on known injectable processes, with organometallics complex with EDTA, incorporation of vitamin B12 was screened by testing 3 possible different stabilizers. • Second Phase consists in evaluating the physical and chemical stability of the formulations which have been developed during precedent phase with the aim to select stable formulation prototypes.
Physical stability study was performed at 5° C., 25° C./60% RH and 40° C./75% RH: T0, T1, T2 and T3 months. A visual inspection was checked at different periods in order to control the absence of precipitation in the formulations. Assay of vitamin B12 was followed up on stability at 25° C./60% RH and 40° C./75% RH: T0, T3 and T6 months.
Then a quantity of stock solution of vitamin B12 was incorporated in the mix to have a final concentration of 0.15% w/v.
Physical stability study was performed on 5 and 10% w/v butaphosphan (with vitamin B12) solutions at ambient temperature: […]

[2] = Feasibility study: incorporation/solubilisation of stabilizers in the EDTA-complexed trace element solution
From the text: Incorporation of vitamin B12 with different stabilizers was screened.
The following concentrations of butaphosphan have been tested:

| physical stability, appearance ([1]; 5 and 15% w/v glycine with vitamin B12, ambient temperature, T1 week) | physical stability, appearance ([1]; 5 and 15% w/v glycine with vitamin B12, ambient temperature, T2 weeks) | physical stability, appearance ([1]; 5 and 15% w/v glycine with vitamin B12, ambient temperature, T4 weeks) | appearance of solution obtained ([2]; butaphosphan 5% w/v) | appearance of solution obtained ([2]; butaphosphan 10% w/v) | physical stability, appearance ([1]; 5 and 10% w/v butaphosphan with vitamin B12 (0.15% w/v), ambient temperature, T1 week) | physical stability, appearance ([1]; 5 and 10% w/v butaphosphan with vitamin B12 (0.15% w/v), ambient temperature, T2 weeks) | physical stability, appearance ([1]; 5 and 10% w/v butaphosphan with vitamin B12 (0.15% w/v), ambient temperature, T4 weeks) | SMILES |
| --- | --- | --- | --- | --- | --- | --- | --- | --- |
| dark clear solution with particle | dark clear solution with particle | dark clear solution with particle |  |  |  |  |  | NCC(=O)O [glycine, Glycine] |
|  |  |  | dark clear solution without particles | dark clear solution without particles | dark clear solution | dark clear solution | dark clear solution | CCCCNC(C)(C)[PH](=O)O [butaphosphan, (1-Butylamino-1-methyl-ethyl)-phosphinic acid] |
